Results taken from patent US20120029187A1, “HALOALKYLSULFONANILIDE DERIVATIVE” (Nissan Chemical Industries, Ltd., priority 2009, published 2012).

Experiments:
Format in all cases: in vivo
transplanted rice = assay: Test Example 1: preemergence treatment under submerged conditions, effect on crop; details: dose 2.52 g/a
How it was run: (§1)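 Alluvial soil flooded to 4 cm depth; barnyardgrass, bulrush and ducksalad sown and 2.5-leaf rice seedlings transplanted. Same day, water-diluted emulsifiable concentrates applied to the water surface at set doses (g/a). Kept at 25–30 °C in greenhouse; effects scored 0–5 by mortality after three weeks.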

common chickweed [1] = assay: Test Example 3: herbicidal effects in soil treatment; details: dose 3.2 g/a
How it was run: (§2)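 Seeds were sown in sterilized diluvial soil and covered with about 1.5 cm of soil. Compounds, formulated as emulsifiable concentrates and diluted with water, were sprayed evenly over the soil surface at set doses in g/a. Herbicidal effect was scored on a rating scale three weeks later.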

wild oat [2] = assay: as above; details: dose 3.2 g/a
How it was run: as §2

common ragweed [3] = assay: as above; details: dose 3.2 g/a
How it was run: as §2

water foxtail [4] = assay: as above; details: dose 3.2 g/a
How it was run: as §2

barnyardgrass [5] = assay: as above; details: dose 3.2 g/a
How it was run: as §2

posumbu knotweed [6] = assay: as above; details: dose 3.2 g/a
How it was run: as §2

beadstraw [7] = assay: as above; details: dose 3.2 g/a
How it was run: as §2

common lambsquater [8] = assay: as above; details: dose 3.2 g/a
How it was run: as §2

Italian ryegrass [9] = assay: as above; details: dose 3.2 g/a
How it was run: as §2

giant foxtail [10] = assay: as above; details: dose 3.2 g/a
How it was run: as §2

redroot pigweed [11] = assay: as above; details: dose 3.2 g/a
How it was run: as §2

large crabgrass [12] = assay: as above; details: dose 3.2 g/a
How it was run: as §2

common chickweed [13] = assay: Test Example 4: herbicidal effect in foliage treatment; details: dose 3.2 g/a, three weeks after application
How it was run: (§3)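 Doses are given in grams per are of applied compound, sprayed as water-diluted emulsifiable concentrate onto foliage of 14-day-old plants grown at 25 to 30° C. Herbicidal activity was assessed visually on a rating scale after three weeks.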

wild oat [14] = assay: as above; details: dose 3.2 g/a, three weeks after application
How it was run: as §3

common ragweed [15] = assay: as above; details: dose 3.2 g/a, three weeks after application
How it was run: as §3

water foxtail [16] = assay: as above; details: dose 3.2 g/a, three weeks after application
How it was run: as §3

barnyardgrass [17] = assay: as above; details: dose 3.2 g/a, three weeks after application
How it was run: as §3

posumbu knotweed [18] = assay: as above; details: dose 3.2 g/a, three weeks after application
How it was run: as §3

beadstraw [19] = assay: as above; details: dose 3.2 g/a, three weeks after application
How it was run: as §3

common lambsquater [20] = assay: as above; details: dose 3.2 g/a, three weeks after application
How it was run: as §3

Italian ryegrass [21] = assay: as above; details: dose 3.2 g/a, three weeks after application
How it was run: as §3

giant foxtail [22] = assay: as above; details: dose 3.2 g/a, three weeks after application
How it was run: as §3

redroot pigweed [23] = assay: as above; details: dose 3.2 g/a, three weeks after application
How it was run: as §3

large crabgrass [24] = assay: as above; details: dose 3.2 g/a, three weeks after application
How it was run: as §3

velvetleaf [25] = assay: as above; details: dose 3.2 g/a, three weeks after application
How it was run: as §3

ducksalad [26] = assay: Test Example 2: herbicidal effects during the vegetation period under submerged conditions; details: treatment during the vegetation period under submerged conditions; dose 2.52 g/a
How it was run: (§4)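 Barnyardgrass, bulrush and ducksalad were co-sown in alluvial soil flooded to 4 cm and grown in a greenhouse at 25 to 30° C. At the 1- or 2-leaf stage, water-diluted emulsifiable concentrates went onto the water surface at set doses (g/a). Herbicidal effect was scored three weeks later on a graded scale.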

barnyardgrass [27] = assay: as above; details: treatment during the vegetation period under submerged conditions; dose 2.52 g/a
How it was run: as §4

bulrush [28] = assay: as above; details: treatment during the vegetation period under submerged conditions; dose 2.52 g/a
How it was run: as §4

ducksalad [29] = assay: Test Example 1: herbicidal effects in preemergence treatment under submerged conditions; details: dose 2.52 g/a
How it was run: as §1

barnyardgrass [30] = assay: as above; details: dose 2.52 g/a
How it was run: as §1

bulrush [31] = assay: as above; details: dose 2.52 g/a
How it was run: as §1

velvetleaf [32] = assay: Test Example 3: herbicidal effects in soil treatment; details: dose 3.2 g/a
How it was run: as §2

| SMILES | a: transplanted rice, effect on crop (evaluation scale 0-5) (transplanted rice) | N: common chickweed, herbicidal effect (evaluation scale 0-5) (common chickweed [1]) | F: wild oat, herbicidal effect (evaluation scale 0-5) (wild oat [2]) | J: common ragweed, herbicidal effect (evaluation scale 0-5) (common ragweed [3]) | G: water foxtail, herbicidal effect (evaluation scale 0-5) (water foxtail [4]) | A: barnyardgrass, herbicidal effect (evaluation scale 0-5) (barnyardgrass [5]) | M: posumbu knotweed, herbicidal effect (evaluation scale 0-5) (posumbu knotweed [6]) | O: beadstraw, herbicidal effect (evaluation scale 0-5) (beadstraw [7]) | L: common lambsquater, herbicidal effect (evaluation scale 0-5) (common lambsquater [8]) | H: Italian ryegrass, herbicidal effect (evaluation scale 0-5) (Italian ryegrass [9]) | E: giant foxtail, herbicidal effect (evaluation scale 0-5) (giant foxtail [10]) | K: redroot pigweed, herbicidal effect (evaluation scale 0-5) (redroot pigweed [11]) | D: large crabgrass, herbicidal effect (evaluation scale 0-5) (large crabgrass [12]) | N: common chickweed, herbicidal effect (common chickweed [13]) | F: wild oat, herbicidal effect (wild oat [14]) | J: common ragweed, herbicidal effect (common ragweed [15]) | G: water foxtail, herbicidal effect (water foxtail [16]) | A: barnyardgrass, herbicidal effect (barnyardgrass [17]) | O: beadstraw, herbicidal effect (beadstraw [19]) | L: common lambsquater, herbicidal effect (common lambsquater [20]) | further results |
| --- | --- | --- | --- | --- | --- | --- | --- | --- | --- | --- | --- | --- | --- | --- | --- | --- | --- | --- | --- | --- | --- |
| CCOC(=O)N(c1ccccc1CN1COC(C(F)(F)F)CC1=O)S(=O)(=O)C(F)(F)F (stereo not shown) [II-15] | 0 (mortality of less than 5% (almost ineffective)) | 4 (mortality of at least 70% and less than 90%) | 0 (mortality of less than 5% (almost ineffective)) | 4 (mortality of at least 70% and less than 90%) | 5 (mortality of 90% or above (nearly complete death)) | 4 (mortality of at least 70% and less than 90%) | 0 (mortality of less than 5% (almost ineffective)) | 0 (mortality of less than 5% (almost ineffective)) | 4 (mortality of at least 70% and less than 90%) | 4 (mortality of at least 70% and less than 90%) | 0 (mortality of less than 5% (almost ineffective)) | 4 (mortality of at least 70% and less than 90%) | 5 (mortality of 90% or above (nearly complete death)) | 4 (mortality of at least 70% and less than 90%) | 0 (mortality of less than 5% (almost ineffective)) | 3 (mortality of at least 40% and less than 70%) | 5 (mortality of 90% or above (nearly complete death)) | 4 (mortality of at least 70% and less than 90%) | 4 (mortality of at least 70% and less than 90%) | 4 (mortality of at least 70% and less than 90%) | M: posumbu knotweed, herbicidal effect (posumbu knotweed [18]): 3 (mortality of at least 40% and less than 70%); H: Italian ryegrass, herbicidal effect (Italian ryegrass [21]): 1 (mortality of at least 5% and less than 20%); E: giant foxtail, herbicidal effect (giant foxtail [22]): 3 (mortality of at least 40% and less than 70%); K: redroot pigweed, herbicidal effect (redroot pigweed [23]): 0 (mortality of less than 5% (almost ineffective)); D: large crabgrass, herbicidal effect (large crabgrass [24]): 4 (mortality of at least 70% and less than 90%); I: velvetleaf, herbicidal effect (velvetleaf [25]): 5 (mortality of 90% or above (nearly complete death)); C: ducksalad, herbicidal effect (evaluation scale 0-5) (ducksalad [26]): 5 (mortality of 90% or above (nearly complete death)); A: barnyardgrass, herbicidal effect (evaluation scale 0-5) (barnyardgrass [27]): 5 (mortality of 90% or above (nearly complete death)); B: bulrush, herbicidal effect (evaluation scale 0-5) (bulrush [28]): 5 (mortality of 90% or above (nearly complete death)); C: ducksalad, herbicidal effect (evaluation scale 0-5) (ducksalad [29]): 5 (mortality of 90% or above (nearly complete death)); A: barnyardgrass, herbicidal effect (evaluation scale 0-5) (barnyardgrass [30]): 5 (mortality of 90% or above (nearly complete death)); B: bulrush, herbicidal effect (evaluation scale 0-5) (bulrush [31]): 5 (mortality of 90% or above (nearly complete death)) |
| O=C1CC(C(F)(F)F)OCN1Cc1ccccc1NS(=O)(=O)C(F)(F)F (stereo not shown) [II-14] | 0 (mortality of less than 5% (almost ineffective)) | 5 (mortality of 90% or above (nearly complete death)) | 0 (mortality of less than 5% (almost ineffective)) | 4 (mortality of at least 70% and less than 90%) | 5 (mortality of 90% or above (nearly complete death)) | 5 (mortality of 90% or above (nearly complete death)) | 5 (mortality of 90% or above (nearly complete death)) | 5 (mortality of 90% or above (nearly complete death)) | 4 (mortality of at least 70% and less than 90%) | 3 (mortality of at least 40% and less than 70%) | 4 (mortality of at least 70% and less than 90%) | 4 (mortality of at least 70% and less than 90%) | 5 (mortality of 90% or above (nearly complete death)) | 3 (mortality of at least 40% and less than 70%) | 0 (mortality of less than 5% (almost ineffective)) | 3 (mortality of at least 40% and less than 70%) | 5 (mortality of 90% or above (nearly complete death)) | 5 (mortality of 90% or above (nearly complete death)) | 3 (mortality of at least 40% and less than 70%) | 4 (mortality of at least 70% and less than 90%) | I: velvetleaf, herbicidal effect (evaluation scale 0-5) (velvetleaf [32]): 5 (mortality of 90% or above (nearly complete death)); H: Italian ryegrass, herbicidal effect (Italian ryegrass [21]): 3 (mortality of at least 40% and less than 70%); E: giant foxtail, herbicidal effect (giant foxtail [22]): 4 (mortality of at least 70% and less than 90%); K: redroot pigweed, herbicidal effect (redroot pigweed [23]): 0 (mortality of less than 5% (almost ineffective)); D: large crabgrass, herbicidal effect (large crabgrass [24]): 4 (mortality of at least 70% and less than 90%); I: velvetleaf, herbicidal effect (velvetleaf [25]): 4 (mortality of at least 70% and less than 90%); C: ducksalad, herbicidal effect (evaluation scale 0-5) (ducksalad [26]): 5 (mortality of 90% or above (nearly complete death)); A: barnyardgrass, herbicidal effect (evaluation scale 0-5) (barnyardgrass [27]): 5 (mortality of 90% or above (nearly complete death)); B: bulrush, herbicidal effect (evaluation scale 0-5) (bulrush [28]): 5 (mortality of 90% or above (nearly complete death)); C: ducksalad, herbicidal effect (evaluation scale 0-5) (ducksalad [29]): 5 (mortality of 90% or above (nearly complete death)); A: barnyardgrass, herbicidal effect (evaluation scale 0-5) (barnyardgrass [30]): 5 (mortality of 90% or above (nearly complete death)); B: bulrush, herbicidal effect (evaluation scale 0-5) (bulrush [31]): 5 (mortality of 90% or above (nearly complete death)) |
